Series [1] can be described thus: Pharmacokinetics of ginsenosides in plasma after a single oral dose of RG or BRG capsules in healthy Korean men (LC-MS/MS). Type of series: in vivo, human. The conditions noted are these: for Cmax / half-life / AUC(0-t) / AUC(0-inf) / Tmax: male, human; for AUC(0-t): read-out: AUC(0–t); for AUC(0-inf): read-out: AUC(0–∞); for Tmax: read-out: T max. The text has this: This study was designed as a randomized, open-label, single-dose, crossover study with washout every 1 week to evaluate the pharmacokinetics and safety of ginsenosides. Subjects were randomly assigned to either the RG or BRG group during the first period of the study (Figure 2). After 1 week of the washout period, other products that were not received in the first period were provided. All enrolled subjects were hospitalized at Bestian Clinical Trial Center on the day before taking RG or BRG. Subjects were provided regular meals, and additional food intake was restricted after the meal. The next day, the subjects who had maintained the fasting state for 10 h took the capsules corresponding to 5 g of RG and BRG orally. Water was restricted for 1 h before and after intake, and food intake was restricted for 4 h after administration. After 4 h, all subjects received a standardized meal. In addition, lying down or sleeping was prohibited for 8 h after oral administration. Blood samples (5 mL) were collected before dosing and at each time point (0, 0.5, 1, 2, 4, 6, 8, 10, 12, and 24 h) after dosing. All blood samples were collected in heparin-treated tubes. The blood samples were promptly centrifuged at 3,000 rpm for 10 min at 4°C, and the plasma samples obtained were stored in a deep freezer at −70 ± 10°C until assay.
All analyses were performed using an Agilent 1200 series HPLC system (Agilent) with a Luna Phenyl-Hexyl column (2.0 × 150 mm, 5 μm; Phenomenex, CA, USA). The mobile phase comprised water (solvent A) and acetonitrile (solvent B) containing 0.1% formic acid. The flow rate of the mobile phase was 0.25–0.35 mL/min. The initial condition of 70% solvent A was set to 5% solvent A over 15 min. The content of ginsenosides in human plasma was measured using an API 5500 mass spectrometer (AB Sciex, Foster City, CA, USA) capable of multiple reaction monitoring (MRM). The parent-daughter ion pairs monitored were 845.5 ⟶ 799.6 for Rg1, 1153.6 ⟶ 1107.5 for Rb1, 829.4 ⟶ 783.5 for Rg3, and F2, 811.4 ⟶ 161.0 for Rg5 and Rk1, 667.4 ⟶ 161.0 for CK, and 825.4 ⟶ 779.3 for digoxin as an IS in the negative ion mode. Nitrogen gas was used in the nebulizer and the collision cell. The ion spray voltage was set to 5500 V.
Standard plasma samples were prepared such that each ginsenoside was in the concentration range of 0.5–100 ng/mL; 10 μL of a standard mixture of six kinds of ginsenosides (Rg1, Rb1, Rg5 + Rk1, F2, and CK) was added to 90 μL of blank human plasma. Rg3 was prepared in the concentration range of 0.2–40 ng/mL. Standard plasma samples (100 μL) were added to 200 μL of methanol containing 50 ng/mL digoxin, an IS. These were mixed for 1 min and then centrifuged at 12,000 rpm for 5 min at 4°C. Then, 100 μL of the supernatant was transferred to an LC vial, and 10 μL was injected into the LC-MS/MS system. Plasma samples stored at −70°C were thawed at room temperature. Samples for LC-MS/MS analysis were pretreated in the same manner as standard plasma samples.
Plasma concentrations of seven ginsenosides were calculated from calibration curves by calculating the ratio of the peak area of the test substance to the peak area of the IS. The following pharmacokinetic parameters were measured using Phoenix WinNonlin 6.3 (Pharsight Co, CA, USA): time to reach maximum observed plasma drug concentration (Tmax), maximum observed plasma drug concentration (Cmax), area under the plasma drug concentration-time curve from 0 h to the final measured time (AUC(0–t)), area under the plasma drug concentration–time curve from 0 h to infinity (AUC(0–∞)), and terminal elimination half-life (t1/2).

A short description of series [2]: Stability of the ginsenosides in human plasma (QC samples, LC-MS/MS method validation). In kind it is in vitro ADME. The conditions noted are these: for Freeze-thaw stability, concentration found / Short-term stability, concentration found / Long-term stability, concentration found: human plasma; for Freeze-thaw stability, concentration found: 3 cycles; for Short-term stability, concentration found: 19 h at room temperature; for Long-term stability, concentration found: 50 days at -70℃; for Autosampler stability, concentration found: processed plasma samples, 34 h at ambient temperature. Here is the method:
The LC-MS/MS method was validated to determine selectivity, lower limits of quantification (LLOQ), accuracy, precision, recovery, matrix effect, and stability, according to the guideline for validating the bioanalytical method. The selectivity of the method was evaluated by comparison of blank plasma from six different men to the corresponding spiked plasma sample at the level of LLOQ to investigate the potential interferences at the LC chromatographic conditions for ginsenoside analytes and IS. The signal-to-noise ratio (S/N) of the LLOQ sample was at least five times the response compared to the blank samples. Each calibration curve was constructed by plotting the peak area ratio (y) of the analyte to IS against the spiked concentrations (x) of each analyte. Linearity was assessed by weighted (1/x^2) least squares regression analysis. The LLOQ was defined as the lowest concentration on the calibration curve with an S/N ratio of 10, where the precision and accuracy bias were within ±20% by five replicate analyses. The intra- and interday precision and accuracy assessments were performed at four concentrations with five replicates on the same day and three consecutive days, respectively. The acceptance criterion recommended by the guideline of precision and the accuracy was ±15% of the nominal concentration. The recovery of the seven ginsenosides was determined at three QC levels with three replicates by comparing the peak areas of plasma extracts spiked with analytes before extraction with those of the postextraction spiked samples at the same concentration. The matrix effects were investigated by comparing the peak areas of the analytes dissolved in the pretreated blank plasma with the corresponding concentrations prepared in the reconstitution solution with three replicates. The stability of the analytes in human plasma was assessed by analyzing five replicates of plasma samples at low, medium, and high QC levels under four different conditions. Short-term stability was evaluated after the exposure of QC samples to room temperature for 19 h before processing and analysis. The freeze and thaw stability was tested after three repeated cycles of thawing at room temperature and freezing at approximately −70°C. The long-term stability was assessed after storage at approximately −70°C for 50 days. The post-preparative stability was examined after the exposure of processed samples at ambient temperature (stored in an HPLC autosampler) for 34 h.

Details of series [3]: method as in earlier work. The conditions noted are these: after oral Korean Red ginseng extract, ref 25 (Kim et al.); cited from earlier work.
Where [4] appears, read: plasma, po, 5 g, plasma, after single oral 5 g BRG, n = 13, mean ± SD.
Setting [5] is: plasma, po, 5 g, plasma, after single oral 5 g RG, n = 13, mean ± SD.

Like-named read-outs stand apart in the source and are kept apart here.

Data on one compound can be found in article PMC8803428, “Pharmacokinetics of Ginsenoside Rb1, Rg3, Rk1, Rg5, F2, and Compound K from Red Ginseng Extract in Healthy Korean Volunteers” (Evidence-based Complementary and Alternative Medicine : eCAM, 2022).

By AUC(0-t) is commonly meant the area under the concentration-time curve up to a stated or last time point.

For the compound `CC(C)=CCC[C@](C)(O[C@@H]1O[C@H](CO[C@@H]2O[C@H](CO)[C@@H](O)[C@H](O)[C@H]2O)[C@@H](O)[C@H](O)[C@H]1O)[C@H]1CC[C@]2(C)[C@@H]1[C@H](O)C[C@@H]1[C@@]3(C)CC[C@H](O[C@@H]4O[C@H](CO)[C@@H](O)[C@H](O)[C@H]4O[C@@H]4O[C@H](CO)[C@@H](O)[C@H](O)[C@H]4O)C(C)(C)[C@@H]3CC[C@]12C` [Rb1, ginsenoside Rb1], the “detection in plasma at the initial time point (0 h) of the second treatment period” value in series [1] (after 1 week washout) is “did not detect”. The Cmax in series [1] (in vivo, po, C max) was 4.04 ± 1.71 ng/mL; in series [1] (plasma, po, 5 g, plasma, after single oral 5 g BRG, n = 13, mean ± SD, read-out: C max) it was 3.19 ± 1.13 ng/mL; in series [3] it was 3.94 ± 1.97 ng/mL. In addition, the half-life in series [1] (plasma, oral, 5 g, range over RG and BRG groups, read-out: t1/2) is 38 to 46 h; in series [1] (plasma, po, 5 g, plasma, after single oral 5 g BRG, n = 13, mean ± SD, read-out: T 1/2 (converted)), 38.1 ± 13.5 h; in series [1] (plasma, po, 5 g, plasma, after single oral 5 g RG, n = 13, mean ± SD, read-out: T 1/2 (converted)), 45.9 ± 21.9 h. Besides, the AUC(0-t) was found to be 56.9 ± 19.6 ng·h/mL in series [1] (setting [4]) and 73.2 ± 29.8 ng·h/mL in series [1] (setting [5]). Besides, the results for the AUC(0-inf) in series [1] (setting [4]) and in series [1] (setting [5]) were 182 ± 94.4 ng·h/mL and 257 ± 115 ng·h/mL, respectively. The Tmax amounted to 6.92 ± 1.55 h in series [1] (setting [4]) and 7.23 ± 1.92 h in series [1] (setting [5]). For the same compound, the “Freeze-thaw stability, concentration found” value in series [2] (1.5 ng/mL) amounted to 98.65 ± 0.66%; in series [2] (80 ng/mL), 100.70 ± 2.36%. In addition, the entries for the “Short-term stability, concentration found” value in series [2] (1.5 ng/mL) and in series [2] (80 ng/mL) were 98.19 ± 1.40% and 96.93 ± 5.41%, respectively. The “Long-term stability, concentration found” value in series [2] (1.5 ng/mL) is reported as 102.01 ± 1.78%; in series [2] (80 ng/mL), 105.06 ± 2.73%. Besides, the “Autosampler stability, concentration found” value in series [2] (1.5 ng/mL) came out at 97.98 ± 3.55%; in series [2] (80 ng/mL), 100.35 ± 5.32%.
